Test [1] concerns the target WRN (BV08), human Werner helicase (Uniprot Q14191, amino acids 517-1235 with L1074F point mutation) (Homo sapiens (Human), UniProt Q14191, L1074F). Put plainly: WRN (BV08) ADP-Glo assay. It counts as biochemical. The settings on record: class symbols A-E, read-out: ADP-Glo_hWRN_IC50. In general terms: ADP-Glo first removes unused ATP, then detects ADP through luciferase.

Test [2] concerns p21 induction in HCT116 cells. Put plainly: p21 induction in HCT116 cells. It counts as cell-based. The conditions noted are these: Homo sapiens, HCT-116, 24 h, read-out: P21_EC50. The method in brief:
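EC50 from non-linear curve fit of p21 immunofluorescence (800 nm), with GAPDH (700 nm) read alongside. DMSO and a reference WRN inhibitor served as low and high controls. Cells (2,000/well) got 11 compound concentrations in duplicate for 24 h at 37 °C.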

Where [3] appears, read: HCT116 cells, 24 h compound incubation.

Like-named read-outs stand apart in the source and are kept apart here. Some results are limits rather than exact numbers.

WRN (BV08), human Werner helicase (Uniprot Q14191, amino acids 517-1235 with L1074F point mutation), sequence (Q14191 other isoform, or with tags, fused parts or gaps L1074F (already in the parent)): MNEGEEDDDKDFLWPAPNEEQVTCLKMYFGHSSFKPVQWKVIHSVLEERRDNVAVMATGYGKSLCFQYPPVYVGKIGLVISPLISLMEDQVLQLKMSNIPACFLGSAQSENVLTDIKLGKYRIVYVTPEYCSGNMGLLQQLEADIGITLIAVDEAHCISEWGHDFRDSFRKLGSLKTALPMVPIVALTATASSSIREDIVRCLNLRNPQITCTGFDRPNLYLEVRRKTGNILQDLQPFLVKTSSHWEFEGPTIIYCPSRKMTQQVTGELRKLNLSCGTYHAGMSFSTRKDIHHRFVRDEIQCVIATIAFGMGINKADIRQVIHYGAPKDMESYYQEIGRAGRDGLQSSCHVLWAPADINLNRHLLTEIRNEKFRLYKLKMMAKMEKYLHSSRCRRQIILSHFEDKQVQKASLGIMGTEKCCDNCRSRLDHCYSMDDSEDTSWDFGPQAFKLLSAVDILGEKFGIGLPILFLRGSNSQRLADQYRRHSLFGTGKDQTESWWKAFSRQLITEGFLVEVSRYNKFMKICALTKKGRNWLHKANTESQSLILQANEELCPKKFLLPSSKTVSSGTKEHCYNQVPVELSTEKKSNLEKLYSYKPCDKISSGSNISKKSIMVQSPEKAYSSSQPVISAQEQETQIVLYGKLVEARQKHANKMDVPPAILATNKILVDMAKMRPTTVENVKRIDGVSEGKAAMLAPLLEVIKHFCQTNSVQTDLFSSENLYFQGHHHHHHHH

Turning to `CCc1c(N2CCN(C(=O)c3ncnc(C)c3O)CC2)c(=O)c2nc(N3CCC4CC43)cnc2n1CC(=O)Nc1ccc(C(F)(F)F)cc1Cl` (stereo not drawn) [I-93, 2-(2-(2-azabicyclo[3.1.0]hexan-2-yl)-6-ethyl-7-(4-(5-hydroxy-6-methylpyrimidine-4-carbonyl)piperazin-1-yl)-8-oxopyrido[2,3-b]pyrazin-5(8H)-yl)-N-(2-chloro-4-(trifluoromethyl)phenyl)acetamide], in test [1], the IC50 is 5 to 50 nM. Further, in test [2] (setting [3]), the EC50 was in the range of 500 to 2000 nM.

For the molecule `CCc1c(N2CCN(C(=O)c3ncnc(C)c3O)CC2)c(=O)c2nc(-c3cn[nH]c3)cnc2n1CC(=O)Nc1ccc(C(F)(F)F)cc1Cl` [I-94, N-(2-chloro-4-(trifluoromethyl)phenyl)-2-(6-ethyl-7-(4-(5-hydroxy-6-methylpyrimidine-4-carbonyl)piperazin-1-yl)-8-oxo-2-(1H-pyrazol-4-yl)pyrido[2,3-b]pyrazin-5(8H)-yl)acetamide], in test [1], the IC50 lay in the range of 5 to 50 nM. Moreover, the EC50 in test [2] (setting [3]) was above 5000 nM.

Take `CCc1c(N2CCN(C(=O)c3ncnc(C)c3O)CC2)c(=O)c2nc3nc(C)sc3nc2n1CC(=O)Nc1ccc(C(F)(F)F)cc1Cl` [I-95, N-(2-chloro-4-(trifluoromethyl)phenyl)-2-(6-ethyl-7-(4-(5-hydroxy-6-methylpyrimidine-4-carbonyl)piperazin-1-yl)-2-methyl-8-oxopyrido[2,3-b]thiazolo[4,5-e]pyrazin-5(8H)-yl)acetamide]: in test [1], the IC50 was in the range of 5 to 50 nM. Besides, the EC50 in test [2] fell in the range of 500 to 2000 nM.

`CCc1c(N2CCN(C(=O)c3ncnc(C)c3O)C[C@@H]2C)c(=O)c2nc(N(C)C)cnc2n1CC(=O)Nc1ccc(C(F)(F)F)cc1Cl` [I-98, (S)—N-(2-chloro-4-(trifluoromethyl)phenyl)-2-(2-(dimethylamino)-6-ethyl-7-(4-(5-hydroxy-6-methylpyrimidine-4-carbonyl)-2-methylpiperazin-1-yl)-8-oxopyrido[2,3-b]pyrazin-5(8H)-yl)acetamide]: the IC50 in test [1] lay in the range of 5 to 50 nM. In addition, in test [2] (setting [3]), the EC50 was below 500 nM.

`CCc1c(N2CCN(C(=O)c3ncnc(C)c3O)C[C@H]2C)c(=O)c2nc(N(C)C)cnc2n1CC(=O)Nc1ccc(C(F)(F)F)cc1Cl` [I-99, (R)—N-(2-chloro-4-(trifluoromethyl)phenyl)-2-(2-(dimethylamino)-6-ethyl-7-(4-(5-hydroxy-6-methylpyrimidine-4-carbonyl)-2-methylpiperazin-1-yl)-8-oxopyrido[2,3-b]pyrazin-5(8H)-yl)acetamide]: the IC50 in test [1] lay in the range of 5 to 50 nM. The EC50 in test [2] (setting [3]) is above 5000 nM.

In the case of `CCc1c(N2CCN(C(=O)c3ncnc(C)c3O)[C@H]3CC[C@@H]32)c(=O)c2nc(C3CC3)cnc2n1CC(=O)Nc1ccc(C(F)(F)F)cc1Cl` [I-100, N-(2-chloro-4-(trifluoromethyl)phenyl)-2-(2-cyclopropyl-6-ethyl-7-((1S,6S)-5-(5-hydroxy-6-methylpyrimidine-4-carbonyl)-2,5-diazabicyclo[4.2.0]octan-2-yl)-8-oxopyrido[2,3-b]pyrazin-5(8H)-yl)acetamide], the IC50 in test [1] was at most 5 nM. Besides, the EC50 in test [2] (setting [3]) is below 500 nM.

With `CCc1c(N2CCN(C(=O)c3ncnc(C)c3O)[C@H]3CC[C@@H]32)c(=O)c2nc(OC3CC3)cnc2n1CC(=O)Nc1ccc(C(F)(F)F)cc1Cl` [I-102, N-(2-chloro-4-(trifluoromethyl)phenyl)-2-(2-cyclopropoxy-6-ethyl-7-((1S,6S)-5-(5-hydroxy-6-methylpyrimidine-4-carbonyl)-2,5-diazabicyclo[4.2.0]octan-2-yl)-8-oxopyrido[2,3-b]pyrazin-5(8H)-yl)acetamide], the IC50 in test [1] was at most 5 nM. In test [2] (setting [3]), the EC50 is below 500 nM.

For the molecule `CCc1c(N2CCN(C(=O)c3ncnc(C)c3O)[C@H]3CC[C@@H]32)c(=O)c2nc(N(C)C)cnc2n1CC(=O)Nc1ccc(C(F)(F)F)cc1C` [I-103, 2-(2-(dimethylamino)-6-ethyl-7-((1S,6S)-5-(5-hydroxy-6-methylpyrimidine-4-carbonyl)-2,5-diazabicyclo[4.2.0]octan-2-yl)-8-oxopyrido[2,3-b]pyrazin-5(8H)-yl)-N-(2-methyl-4-(trifluoromethyl)phenyl)acetamide], the IC50 in test [1] lay in the range of 5 to 50 nM. The EC50 in test [2] (setting [3]) was below 500 nM.

For `CCc1c(N2CCN(C(=O)c3ncnc(C)c3O)[C@H]3CC[C@@H]32)c(=O)c2nc(N(C)C)cnc2n1CC(=O)Nc1ccc(C(F)(F)F)cc1` [I-104, 2-(2-(dimethylamino)-6-ethyl-7-((1S,6S)-5-(5-hydroxy-6-methylpyrimidine-4-carbonyl)-2,5-diazabicyclo[4.2.0]octan-2-yl)-8-oxopyrido[2,3-b]pyrazin-5(8H)-yl)-N-(4-(trifluoromethyl)phenyl)acetamide], the IC50 in test [1] fell in the range of 5 to 50 nM. Besides, the EC50 in test [2] (setting [3]) is below 500 nM.

`CCc1c(N2CCN(C(=O)c3ncnc(C)c3O)[C@H]3CC[C@@H]32)c(=O)c2nc(N3CCCC3)cnc2n1CC(=O)Nc1ccc(C(F)(F)F)cc1Cl` [I-105, N-(2-chloro-4-(trifluoromethyl)phenyl)-2-(6-ethyl-7-((1S,6S)-5-(5-hydroxy-6-methylpyrimidine-4-carbonyl)-2,5-diazabicyclo[4.2.0]octan-2-yl)-8-oxo-2-(pyrrolidin-1-yl)pyrido[2,3-b]pyrazin-5(8H)-yl)acetamide]: the IC50 in test [1] fell in the range of 5 to 50 nM. In addition, the EC50 in test [2] (setting [3]) is below 500 nM.

On to `CCc1c(N2CCN(C(=O)c3ncnc(C)c3O)[C@H]3CC[C@@H]32)c(=O)c2nc(N(C)C)c(C)nc2n1CC(=O)Nc1ccc(C(F)(F)F)cc1Cl` [I-107, N-(2-chloro-4-(trifluoromethyl)phenyl)-2-(2-(dimethylamino)-6-ethyl-7-((1S,6S)-5-(5-hydroxy-6-methylpyrimidine-4-carbonyl)-2,5-diazabicyclo[4.2.0]octan-2-yl)-3-methyl-8-oxopyrido[2,3-b]pyrazin-5(8H)-yl)acetamide], for which, in test [1], the IC50 was at most 5 nM. Also, the EC50 in test [2] (setting [3]) was below 500 nM.

On to `CCc1c(N2CCN(C(=O)c3ncnc(C)c3O)CC2)c(=O)c2nc(N(C)C)cnc2n1CC(=O)NC12CC(C(F)(F)F)(C1)C2` [I-108, 2-(2-(dimethylamino)-6-ethyl-7-(4-(5-hydroxy-6-methylpyrimidine-4-carbonyl)piperazin-1-yl)-8-oxopyrido[2,3-b]pyrazin-5(8H)-yl)-N-(3-(trifluoromethyl)bicyclo[1.1.1]pentan-1-yl)acetamide], for which the IC50 in test [1] lay within 100 to 500 nM. For the same molecule, in test [2] (setting [3]), the EC50 was above 5000 nM.

As to `CCc1c(N2CCN(C(=O)c3ncnc(C)c3O)CC2)c(=O)c2nc(N(C)C)c(F)cc2n1CC(=O)Nc1ccc(C(F)(F)F)cc1Cl` [I-109, N-(2-chloro-4-(trifluoromethyl)phenyl)-2-(6-(dimethylamino)-2-ethyl-7-fluoro-3-(4-(5-hydroxy-6-methylpyrimidine-4-carbonyl)piperazin-1-yl)-4-oxo-1,5-naphthyridin-1(4H)-yl)acetamide], the IC50 in test [1] lay within 5 to 50 nM. Further, the EC50 in test [2] fell in the range of 500 to 2000 nM.

For `CCc1c(N2CCN(C(=O)c3ncnc(C)c3O)[C@H]3CC[C@@H]32)c(=O)c2nc(N(C)C)cnc2n1CC(=O)NC12CC(C(F)(F)F)(C1)C2` [I-110, 2-(2-(dimethylamino)-6-ethyl-7-((1S,6S)-5-(5-hydroxy-6-methylpyrimidine-4-carbonyl)-2,5-diazabicyclo[4.2.0]octan-2-yl)-8-oxopyrido[2,3-b]pyrazin-5(8H)-yl)-N-(3-(trifluoromethyl)bicyclo[1.1.1]pentan-1-yl)acetamide], the IC50 in test [1] fell in the range of 100 to 500 nM. The EC50 in test [2] (setting [3]) was above 5000 nM.

Turning to `CCc1c(N2CCN(C(=O)c3ncnc(C)c3O)[C@H]3CC[C@@H]32)c(=O)c2nc(C=C(C)C)nnc2n1CC(=O)Nc1ccc(C(F)(F)F)cc1Cl` [I-111, N-(2-chloro-4-(trifluoromethyl)phenyl)-2-(7-ethyl-6-((1S,6S)-5-(5-hydroxy-6-methylpyrimidine-4-carbonyl)-2,5-diazabicyclo[4.2.0]octan-2-yl)-3-(2-methylprop-1-en-1-yl)-5-oxopyrido[3,2-e] [1,2,4]triazin-8(5H)-yl)acetamide], in test [1], the IC50 was at most 5 nM. Also, the EC50 in test [2] (setting [3]) was below 500 nM.

Take `CCc1c(N2CCN(C(=O)c3ncnc(C)c3O)CC2)c(=O)c2nc3cc(C)oc3nc2n1CC(=O)Nc1ccc(C(F)(F)F)cc1Cl` [I-112, N-(2-chloro-4-(trifluoromethyl)phenyl)-2-(7-ethyl-6-(4-(5-hydroxy-6-methylpyrimidine-4-carbonyl)piperazin-1-yl)-2-methyl-5-oxofuro[2,3-b]pyrido[3,2-e]pyrazin-8(5H)-yl)acetamide]: the IC50 in test [1] lay within 5 to 50 nM. Further, the EC50 in test [2] (setting [3]) is below 500 nM.

With `CCc1c(N2CCN(C(=O)c3ncnc(C)c3O)CC2)c(=O)c2nc3sc(C)cc3nc2n1CC(=O)Nc1ccc(C(F)(F)F)cc1Cl` [I-113, N-(2-chloro-4-(trifluoromethyl)phenyl)-2-(6-ethyl-7-(4-(5-hydroxy-6-methylpyrimidine-4-carbonyl)piperazin-1-yl)-2-methyl-8-oxopyrido[2,3-b]thieno[2,3-e]pyrazin-5(8H)-yl)acetamide], the IC50 in test [1] was at most 5 nM. The EC50 in test [2] (setting [3]) was below 500 nM.

As to `CCc1c(N2CCN(C(=O)c3ncnc(C)c3O)[C@H]3CC[C@@H]32)c(=O)c2nc3nc(C)sc3nc2n1CC(=O)Nc1ccc(C(F)(F)F)cc1Cl` [I-114, N-(2-chloro-4-(trifluoromethyl)phenyl)-2-(6-ethyl-7-((1S,6S)-5-(5-hydroxy-6-methylpyrimidine-4-carbonyl)-2,5-diazabicyclo[4.2.0]octan-2-yl)-2-methyl-8-oxopyrido[2,3-b]thiazolo[4,5-e]pyrazin-5(8H)-yl)acetamide], the IC50 in test [1] was 5 to 50 nM. Besides, the EC50 in test [2] (setting [3]) is below 500 nM.

Values taken from patent US20250034136A1 (Nimbus Wadjet, Inc., priority 2023, published 2025).
